Earlier results as cited in the PKSmart pharmacokinetics tables (Seal et al. 2025).

Assay: Lombardo, Berellini, Obach 2018, Drug Metab Dispos 46:1466, doi 10.1124/dmd.118.082966
Conditions: human; for MRT / Vd / clearance / half-life: in vivo, iv; for fraction unbound: plasma

| SMILES | MRT [h] | Vd [L/kg] | clearance [mL/min/kg] | half-life [h] | fraction unbound |
| --- | --- | --- | --- | --- | --- |
| N#Cc1ccc2[nH]cc(CCCCN3CCN(c4ccc5oc(C(N)=O)cc5c4)CC3)c2c1 | 21.5 | 4.85 | 3.76 | 15.7 | 0.03 |
| COCCCN1CCC(NC(=O)c2cc(Cl)c(N)c3c2OCC3)CC1 | 32.2 | 8.73 | 4.55 | 22.5 | 0.7 |
| C=C1/C(=C\C=C2/CCC[C@]3(C)[C@@H]([C@H](C)CCCC(C)(C)O)CC[C@@H]23)C[C@@H](O)C[C@@H]1O | 13.3 | 0.25 | 0.31 | 11 |  |
| NC[C@H]1O[C@H](O[C@H]2[C@H](O[C@@H]3O[C@H](CO)[C@@H](O)[C@H]3O)[C@@H](O)[C@H](N)C[C@@H]2N)[C@H](N)[C@@H](O)[C@@H]1O | 2.8 | 0.25 | 1.5 | 2.5 |  |
| COc1cc(F)ccc1Cn1ccc2c3c(ncc21)C(=O)N(O)CC3 | 3.95 | 5.7 | 24 | 3.8 | 0.08 |
| NC(=O)N1C(=O)C(C(=O)c2cccs2)c2cc(Cl)ccc21 (stereo not drawn) | 31.6 | 0.11 | 0.058 | 22.7 | 0.01 |
| C=C(CC(NC(=O)c1ccc(CCc2cnc3nc(N)nc(N)c3n2)cc1)C(=O)O)C(=O)O (stereo not drawn) | 3.78 | 0.7 | 3.08 | 8.2 |  |
| CC1(C)C(\C=C/C=C/C=C/C=C2\N(CCCCS(=O)(=O)O)c3ccc4ccccc4c3C2(C)C)=[N+](CCCCS(=O)(=O)[O-])c2ccc3ccccc3c21 | 0.086 | 0.035 | 6.8 | 0.065 | 0.05 |
| CN1CCN2c3ccccc3Cc3ccccc3[C@H]2C1 | 10.5 | 13.8 | 21.9 | 9.6 | 0.05 |
| N#Cc1ccc2c(c1)CN(S(=O)(=O)c1cccs1)[C@H](Cc1ccccc1)CN2Cc1cnc[nH]1 | 1.4 | 0.84 | 9.6 | 1.6 | 0.01 |
| COc1c(N2CCC/C(=C(\F)CN)C2)c(F)cc2c(=O)c(C(=O)O)cn(C3CC3)c12 | 24.2 | 1.13 | 0.78 | 19.6 | 0.34 |
| O=S(=O)(Nc1ccccc1)c1cccc(/C=C/C(O)=NO)c1 | 0.6 | 0.8 | 23.6 | 1.6 | 0.06 |
| COc1cc(OC)c(/C=C/S(=O)(=O)Cc2ccc(OC)c(NCC(=O)O)c2)c(OC)c1 | 1.2 | 0.11 | 1.51 | 0.95 |  |
| Nc1c2c(nc3ccccc13)CCCC2 | 3.3 | 11 | 56 | 3.3 | 0.25 |
| CC[C@H]1OC(=O)C(C)C(=O)C(C)[C@@H](O[C@@H]2O[C@H](C)C[C@H](N(C)C)[C@H]2O)[C@](C)(OC)CC(C)C(=O)C(C)[C@H]2N(CCCCn3cnc(-c4cccnc4)c3)C(=O)O[C@]12C (stereo partly drawn) | 3.6 | 3 | 14 | 12 | 0.41 |
| Nc1c(CC(=O)O)cccc1C(=O)c1ccc(Br)cc1 | 1.5 | 0.11 | 1.3 | 2.6 | 0.0011 |

| SMILES | MRT [h] | Vd [L/kg] | clearance [mL/min/kg] | half-life [h] | fraction unbound |
| --- | --- | --- | --- | --- | --- |
| N=C(N)N1CCC[C@@H](CNC(=O)CC(NS(=O)(=O)c2ccc3ccccc3c2)C(=O)N(CC(=O)O)C2CC2)C1 (stereo partly drawn) | 0.94 | 0.36 |  | 1.9 | 0.55 |
| C/C(=C\c1csc(C)n1)[C@@H]1C[C@@H]2O[C@]2(C)CCC[C@H](C)[C@H](O)C(C)C(=O)C(C)(C)[C@@H](O)CC(=O)N1 (stereo partly drawn) | 18 | 11 | 10 | 17 | 0.2 |
| CCOc1nc2cccc(C(=O)O)c2n1Cc1ccc(-c2ccccc2-c2nnn[nH]2)cc1 | 5.9 | 0.13 | 0.37 | 9.7 | 0.002 |
| CC[C@H](C)[C@@H]([C@@H](CC(=O)N1CCC[C@H]1[C@H](OC)C(C)C(=O)NCCc1ccccc1)OC)N(C)C(=O)C(NC(=O)C(C(C)C)N(C)C)C(C)C (stereo partly drawn) | 4.6 | 0.42 | 1.6 | 5.67 |  |
| O=C(Cc1cccs1)NC1C(=O)N2C(C(=O)[O-])=C(C[n+]3ccccc3)CS[C@H]12 (stereo partly drawn) | 2.3 | 0.46 | 3.3 | 1.5 | 0.8 |
| CCC(CC)COC(C(=O)OCCN(C)C)(c1ccccc1)c1ccccc1 | 21 | 7.1 | 5.7 | 34 |  |
| CSCCC(N)C(=O)N[C@@]1(C(=O)O)CS(=O)(=O)[C@H]2C(C(=O)O)[C@H]21 (stereo partly drawn) | 0.75 | 0.44 | 9.73 | 0.84 |  |
| OCCO[C@H]1C[C@@H](n2nnc3c(N[C@@H]4C[C@H]4c4ccc(F)c(F)c4)nc(S)nc32)[C@H](O)[C@@H]1O | 6.16 | 1.25 | 3.38 | 6.8 | 0.002 |
| CC(C)(C)S(=O)(=O)CC(Cc1ccccc1)C(=O)NC(Cc1c[nH]cn1)C(=O)N[C@@H](CC1CCCCC1)[C@@H](O)C(O)C1CC1 (stereo partly drawn) | 1.1 | 0.77 | 11.6 | 5.2 | 0.0558 |
| CNC(=O)c1c(I)c(NC(C)=O)c(I)c(C(=O)O)c1I | 1.2 | 0.17 | 2.4 | 1.3 |  |
| CCn1cc(C(=O)O)c(=O)c2cc(F)c(N3CCNCC3)cc21 | 4.5 | 1.88 | 6.96 | 4.45 | 0.13 |
| CNC[C@@H]1CC[C@@H](N)[C@@H](O[C@@H]2[C@H](O)[C@@H](O[C@H]3OC[C@](C)(O)[C@H](NC)[C@H]3O)[C@H](N)C[C@@H]2N)O1 | 2.4 | 0.15 | 1.1 | 2.1 |  |
| COc1cc2c(cc1OC)[C@H]1C[C@@H](OC(=O)C(N)C(C)C)[C@H](CC(C)C)CN1CC2 (stereo partly drawn) | 12.8 | 1.31 | 1.71 | 18 | 0.01 |
| CC(=O)Oc1ccc2c3c1O[C@H]1[C@@H](OC(C)=O)C=C[C@H]4[C@@H](C2)N(C)CC[C@@]341 | 0.1 | 1.31 | 212 | 0.062 |  |
| CC1(C)S[C@@H]2C(NC(=O)C(NC(=O)N3CCNC3=O)c3ccccc3)C(=O)N2C1C(=O)O (stereo partly drawn) | 1.7 | 0.26 | 2.5 | 1.2 | 0.65 |
| CCN(CC)CCCC(C)Nc1ccnc2cc(Cl)ccc12 (stereo not drawn) | 740 | 140 | 4.1 | 570 |  |
